Read-outs that look alike come from different tables or passages of the source.
Assays:
[1] = pKa' measurement; format: physicochemical; settings: 40% aqueous methanol
Source text: 4. pKa' less than 6 (measured in 40% aqueous methanol)
4. pKa 7.03 (measured in 40% aqueous methanol)

[2] = test system: Mycobacterium 607; assay: MIC, agar dilution on nutrient agar; format: cell-based; settings: acetylated Josamycins as Josamycin equivalent, read-out: Minimum Inhibitory Concentration (MIC)
Method: (§1) Experimental procedure: Minimum inhibitory concentrations (MIC) were determined as to Josamycin, monoacetyl-josamycin-1, monoacetyl-josamycin-2and diacetyl-josamycin, according to usual agar dilution method on nutrient agar.

[3] = test system: Escherichia coli PCI 602; assay: MIC, agar dilution on nutrient agar; format: cell-based; settings: PCI602, acetylated Josamycins as Josamycin equivalent, read-out: Minimum Inhibitory Concentration (MIC)
Method: as §1

[4] = test system: Staphylococcus aureus PC, SM, TC, EM, SA resistant; assay: MIC, agar dilution on nutrient agar; format: cell-based; settings: acetylated Josamycins as Josamycin equivalent, read-out: Minimum Inhibitory Concentration (MIC)
Method: as §1

[5] = test system: Staphylococcus aureus FDA 209P Smith; assay: MIC, agar dilution on nutrient agar; format: cell-based; settings: FDA209P, acetylated Josamycins as Josamycin equivalent, read-out: Minimum Inhibitory Concentration (MIC)
Method: as §1

[6] = test system: Staphylococcus aureus FDA 209P; assay: MIC, agar dilution on nutrient agar; format: cell-based; settings: FDA209P, acetylated Josamycins as Josamycin equivalent, read-out: Minimum Inhibitory Concentration (MIC)
Method: as §1

[7] = test system: Salmonella typhi H 901W; assay: MIC, agar dilution on nutrient agar; format: cell-based; settings: Salmonella enterica, read-out: Minimum Inhibitory Concentration (MIC)
Method: as §1

[8] = test system: Shigella flexneri 2a 1675; assay: MIC, agar dilution on nutrient agar; format: cell-based; settings: 2A1675, acetylated Josamycins as Josamycin equivalent, read-out: Minimum Inhibitory Concentration (MIC)
Method: as §1

[9] = test system: Bacillus subtilis ATCC 6635; assay: MIC, agar dilution on nutrient agar; format: cell-based; settings: ATCC6635, acetylated Josamycins as Josamycin equivalent, read-out: Minimum Inhibitory Concentration (MIC)
Method: as §1

[10] = test system: Staphylococcus aureus PC, CP, TC, SA resistant; assay: MIC, agar dilution on nutrient agar; format: cell-based; settings: acetylated Josamycins as Josamycin equivalent, read-out: Minimum Inhibitory Concentration (MIC)
Method: as §1

[11] = Solubility
[12] = test system: Staphylococcus aureus Smith; assay: Protection of mice from systemic staphylococcal infection; format: in vivo; settings: 5 mice, control 0 of 10
Source text: Experimental procedure: Group of 5 mice were inoculated intraperitoneally with 1000 MLD (containing 5% of mucin added) of Staphylococcus aureus Smith. Immediately after the infection, a single dose of each antibiotic was given orally. The survival of mice after 7 days was observed. The group for control (10 mice) was given no antibiotic.

[13] = test system: Staphylococcus aureus No. 226 strain; assay: Protection of mice from subcutaneous Staphylococcal infection; format: in vivo; settings: 48 hours, control 88.2
Method: Experimental procedure: Groups of 5 mice were inoculated subcutaneously in the back with 10^8 cells (in 0.1 ml volume) of Staphylococcus aureus No. 226 strain. Immediately after the infection, Josamycin or monoacetyl-josamycin-2 was administered orally. To the control group, no medicament was administered. After 48 hours, the animals were killed. The skin of the back of each mouse was cut open, and the size of subcutaneous abscess was measured.

[14] = Josamycin base, as described; cited from earlier work
[15] = test system: staphylococci resistant to streptothricin, telomycin, streptomycin, chloramphenicol, or penicillin; settings: cited from earlier work
[16] = titrated in aqueous methanol; base form; cited from earlier work
[17] = 50 mg/kg oral single dose (as Josamycin equivalent)
[18] = 150 mg/kg oral single dose (as Josamycin equivalent)
[19] = 500 mg/kg oral single dose (as Josamycin equivalent)
[20] = 200 mg/kg oral (as Josamycin equivalent)

COC1C(OC(C)=O)CC(=O)OC(C)C/C=C/C=C/C(OC(C)=O)C(C)CC(CC=O)C1OC1OC(C)C(OC2CC(C)(O)C(OC(=O)CC(C)C)C(C)O2)C(N(C)C)C1OC(C)=O (centres unmarked) [Diacetyl-josamycin, diacetyl-josamycin]
pKa [1]: < 6
MIC [2]: 3.1 µg/mL
MIC [3]: > 100 µg/mL
MIC [4]: > 100 µg/mL
MIC [5]: 0.39 µg/mL
MIC [6]: 0.39 µg/mL
MIC [7]: > 100 µg/mL
MIC [8]: 50 µg/mL
MIC [9]: 0.39 µg/mL
MIC [10]: 0.78 µg/mL

COC1C(OC(C)=O)CC(=O)OC(C)C/C=C/C=C/C(O)C(C)CC(CC=O)C1OC1OC(C)C(OC2CC(C)(O)C(OC(=O)CC(C)C)C(C)O2)C(N(C)C)C1OC(C)=O (centres unmarked) [Monoacetyl-josamycin-1, 2'-acetyl-josamycin]
Solubility (easily soluble solvents) [11]: easily soluble in acetone, methylethylketone, chloroform, ethyl acetate and benzene
Solubility (hardly soluble solvents) [11]: hardly soluble in water, petroleum ether and n-hexane
Solubility (soluble solvents) [11]: soluble in methanol and ethanol
pKa ([1]; read-out: pKa'): < 6
MIC [2]: 3.1 µg/mL
MIC [3]: > 100 µg/mL
MIC [4]: > 100 µg/mL
MIC [5]: 0.39 µg/mL
MIC [6]: 0.39 µg/mL
MIC [7]: > 100 µg/mL
MIC [8]: 50 µg/mL
MIC [9]: 0.39 µg/mL
MIC [10]: 0.78 µg/mL

COC1C(OC(C)=O)CC(=O)OC(C)C/C=C/C=C/C(OC(C)=O)C(C)CC(CC=O)C1OC1OC(C)C(OC2CC(C)(O)C(OC(=O)CC(C)C)C(C)O2)C(N(C)C)C1O (centres unmarked) [Monoacetyl-josamycin-2, monoacetyl-josamycin-2]
Survival on 7th day (number of mice) [12, 17]: 0
Survival on 7th day (number of mice) [12, 18]: 3
Survival on 7th day (number of mice) [12, 19]: 5
Size of abscess [13, 20]: 0.64 mm^2
Solubility (easily soluble solvents) [11]: easily soluble in acetone, chloroform, methanol, ethyl acetate and ethylether
Solubility (hardly soluble solvents) [11]: hardly soluble in water, petroleum ether and n-hexane
Solubility (soluble solvents) [11]: soluble in carbon tetrachloride
pKa ([1]; read-out: pKa'): 7.03
MIC [2]: 3.1 µg/mL
MIC [3]: > 100 µg/mL
MIC [4]: > 100 µg/mL
MIC [5]: 0.39 µg/mL
MIC [6]: 0.39 µg/mL
MIC [7]: > 100 µg/mL
MIC [8]: 50 µg/mL
MIC [9]: 0.39 µg/mL
MIC [10]: 0.78 µg/mL

CO[C@@H]1[C@@H](O[C@@H]2O[C@H](C)[C@@H](O[C@H]3C[C@@](C)(O)[C@@H](OC(=O)CC(C)C)[C@H](C)O3)[C@H](N(C)C)[C@H]2O)[C@@H](CC=O)C[C@@H](C)[C@@H](O)/C=C/C=C/C[C@@H](C)OC(=O)C[C@H]1OC(C)=O [Josamycin]
Survival on 7th day (number of mice) [12, 17]: 0
Survival on 7th day (number of mice) [12, 18]: 2
Survival on 7th day (number of mice) [12, 19]: 5
Solubility (easily soluble solvents) [14]: easily soluble in acidic water, methanol, ethanol, chloroform, ethyl acetate, and acetone
Solubility (slightly soluble solvents) [14]: slightly soluble in water, petroleum ether, ligroin, and n-hexane
Solubility (soluble solvents) [14]: soluble in benzene, ether and carbon tetrachloride
Size of abscess ([13]; 50 mg/kg oral): 21.2 mm^2
Size of abscess [13, 20]: 4.19 mm^2
Inhibition of growth of resistant staphylococci [15]: inhibits the growth
pKa' [16]: 7.1
MIC [2]: 3.1 µg/mL
MIC [3]: > 100 µg/mL
MIC [4]: > 100 µg/mL
MIC [5]: 0.39 µg/mL
MIC [6]: 0.39 µg/mL
MIC [7]: > 100 µg/mL
MIC [8]: 50 µg/mL
MIC [9]: 0.39 µg/mL
MIC [10]: 0.78 µg/mL
